Reference: patent US20170007553A1, “METHODS FOR THE PREVENTION AND TREATMENT OF CEREBRAL ISCHEMIA” (Edison Pharmaceuticals, Inc., priority 2009, published 2017)

Experiments:
[1] = fraction of the activity of natural alpha-tocopherol; cited from earlier work
neuronal cells = conditions: nM/L concentrations; by suppressing early activation of c-Src kinase and 12-lipoxygenase; cited from earlier work
[2] = test system: cerebral ischemia induced in rats (MCAO); assay: Animal cerebral infarct assay, rat middle cerebral artery occlusion (MCAO) with reperfusion; format: in vivo; conditions: for reduction of total infarct size: gavage, 500 mg/kg
[3] = administered at the time of reperfusion, rats

Compound: Cc1cc(O)cc2c1O[C@](C)(CCC[C@H](C)CCC[C@H](C)CCCC(C)C)CC2 [Delta-tocopherol]
- activity relative to natural alpha-tocopherol [1]: one hundredth

Compound: Cc1c(C)c2c(c(C)c1O)CC[C@@](C)(CCC[C@H](C)CCC[C@H](C)CCCC(C)C)O2 [alpha-tocopherol]
- blocking of glutamate-induced death (neuronal cells): not

Compound: CC(C)=CCC/C(C)=C/CC/C(C)=C/CC[C@@](C)(O)CCC1=C(C)C(=O)C(C)=C(C)C1=O [alpha-tocotrienol quinone]
- reduction of cerebral edema relative to controls [2, 3]: 40%
- reduction of total infarct volume relative to controls [2, 3]: 40%
- reduction of total ischemic damage relative to controls [2, 3]: 40%
- reduction of total infarct size ([2]; administered at reperfusion): 40%
- reduction of total infarct size ([2]; administered at the time of MCAO): 40%

Compound: alpha-tocotrienol
- blocking of glutamate-induced death (neuronal cells): blocked glutamate-induced death
